Source: ChEMBL document CHEMBL3046837, “Synthesis of some novel amino and thiotetrazole purine derivatives and investigation of their antimicrobial activity and DNA interactions” (Med Chem Res, 2013)
Calls of active or inactive are those of the source. No cut-off for these calls is given here.

Key:
[1] = test system: Bacillus subtilis; experiment: Antibacterial activity against Bacillus subtilis […] after 24 hr by disk diffusion method; format: functional, organism-based
[2] = test system: Proteus vulgaris; experiment: Antibacterial activity against Proteus vulgaris ATCC 8427 after 24 hr by disk diffusion method; format: functional, organism-based
[3] = test system: Escherichia coli; experiment: Covalent binding to Escherichia coli pBR322 DNA Guanine-guanine site assessed as inhibition of BamH1-mediated restriction digestion at 1250 uM by restriction endonuclease analysis
[4] = test system: Bacillus cereus; experiment: Antibacterial activity against Bacillus cereus NRLL B-3008 after 24 hr by disk diffusion method; format: functional, organism-based
[5] = test system: Candida tropicalis; experiment: Antifungal activity against Candida tropicalis ATCC 13803 after 72 hr by disk diffusion method; format: functional, organism-based
[6] = test system: Escherichia coli; experiment: Covalent binding to Escherichia coli pBR322 DNA adenine-adenine site assessed as inhibition of Hind3-mediated restriction digestion at 1250 uM by restriction endonuclease analysis
[7] = test system: Escherichia coli; experiment: Binding affinity to Escherichia coli pBR322 DNA assessed as decrease in mobility of form 1 DNA at high concentration after 24 hr by agarose gel electrophoresis
[8] = test system: Enterococcus faecalis; experiment: Antibacterial activity against Enterococcus faecalis […] after 24 hr by disk diffusion method; format: functional, organism-based
[9] = test system: Pseudomonas aeruginosa; experiment: Antibacterial activity against Pseudomonas aeruginosa ATCC 27853 after 24 hr by disk diffusion method; format: functional, organism-based
[10] = test system: Escherichia coli; experiment: Antibacterial activity against Escherichia coli ATCC 25922 after 24 hr by disk diffusion method; format: functional, organism-based
[11] = test system: Candida albicans; experiment: Antifungal activity against Candida albicans ATCC 10231 after 72 hr by disk diffusion method; format: functional, organism-based
[12] = test system: Staphylococcus aureus; experiment: Antibacterial activity against Staphylococcus aureus ATCC 25923 after 24 hr by disk diffusion method; format: functional, organism-based
[13] = test system: Escherichia coli; experiment: Antibacterial activity against Escherichia coli ATCC 35218 after 24 hr by disk diffusion method; format: functional, organism-based
[14] = test system: Escherichia coli; experiment: Binding affinity to Escherichia coli pBR322 DNA assessed as change in mobility of form 2 DNA at low concentration after 24 hr by agarose gel electrophoresis
[15] = test system: Escherichia coli; experiment: Binding affinity to Escherichia coli pBR322 DNA assessed as change in mobility of form 1 DNA at low concentration after 24 hr by agarose gel electrophoresis
[16] = test system: Escherichia coli; experiment: Covalent binding to Escherichia coli pBR322 DNA assessed as increase in intensity of form 1 DNA at high concentration after 24 hr by agarose gel electrophoresis
[17] = test system: Escherichia coli; experiment: Covalent binding to Escherichia coli pBR322 DNA assessed as appearance of small DNA fragments at high concentration after 24 hr by agarose gel electrophoresis
[18] = test system: Escherichia coli; experiment: Covalent binding to Escherichia coli pBR322 DNA assessed as increase in mobility of form 1 DNA at high concentration after 24 hr by agarose gel electrophoresis
[19] = test system: Escherichia coli; experiment: Covalent binding to Escherichia coli pBR322 DNA assessed as disappearance of form 2 DNA at high concentration after 24 hr by agarose gel electrophoresis
[20] = test system: Escherichia coli; experiment: Binding affinity to Escherichia coli pBR322 DNA assessed as appearance of DNA fragments at high concentration after 24 hr by agarose gel electrophoresis

Activity [3] | Activity [6] | Activity [7] | Activity [14] | Activity [15] | Activity [16] | Activity [17] | Activity [18] | Activity [19] | Activity [20] | Structure (SMILES) | Activity [1] | Activity [2] | Activity [4] | Activity [5] | Activity [8] | Activity [9] | Activity [10] | Activity [11] | Activity [12] | Activity [13]
inactive | Active | Active |  |  |  |  |  |  |  | c1ccc(Cn2cnc3c(Nc4nnn[nH]4)ncnc32)cc1 | inactive | inactive | inactive | inactive | inactive | inactive | inactive | inactive | inactive | inactive
Active | Active |  |  |  |  |  | Active | Active |  | CCn1cnc2c(Sc3nnnn3C)ncnc21 | inactive | inactive | inactive | inactive | inactive | inactive | inactive | inactive | inactive | inactive
Active | Active | Active |  |  |  |  |  |  | Active | CC(C)n1cnc2c(Sc3nnnn3C)ncnc21 | inactive | inactive | inactive | inactive | inactive | inactive | inactive | inactive | inactive | inactive
Active | Active | Active |  |  |  |  |  |  | Active | CCCn1cnc2c(Sc3nnnn3C)ncnc21 | inactive | inactive | inactive | inactive | inactive | inactive | inactive | inactive | inactive | inactive
Active | Active |  |  |  |  |  |  | Active | Active | Cn1nnnc1Sc1ncnc2c1ncn2CC1CCC1 | inactive | inactive | inactive | inactive | inactive | inactive | inactive | inactive | inactive | inactive
Active | Active |  |  |  |  |  | Active |  |  | Cn1nnnc1Sc1ncnc2c1ncn2C | inactive | inactive | inactive | inactive | inactive | inactive | inactive | inactive | inactive | inactive
Active | Active |  |  |  |  |  |  | Active | Active | Cn1nnnc1Sc1ncnc2c1ncn2Cc1ccccc1 | inactive | inactive | inactive | inactive | inactive | inactive | inactive | inactive | inactive | inactive
inactive | Active |  | inactive | inactive | Active | Active |  |  |  | CCn1cnc2c(Nc3nnn[nH]3)ncnc21 | inactive | inactive | inactive | inactive | inactive | inactive | inactive | inactive | inactive | inactive
inactive | Active | Active |  |  |  |  |  |  | Active | c1nc(Nc2nnn[nH]2)c2ncn(CC3CCC3)c2n1 | inactive | inactive | inactive | inactive | inactive | inactive | inactive | inactive | inactive | inactive
inactive | Active |  | inactive | inactive | Active | Active |  |  |  | CC(C)n1cnc2c(Nc3nnn[nH]3)ncnc21 | inactive | inactive | inactive | inactive | inactive | inactive | inactive | inactive | inactive | inactive
Active | Active | Active |  |  |  |  |  |  |  | Cn1nnnc1Sc1ncnc2[nH]cnc12 | inactive | inactive | inactive | inactive | inactive | inactive | inactive | inactive | inactive | inactive
Active | Active |  |  |  |  |  |  | Active | Active | CCOC(=O)Cn1cnc2c(Sc3nnnn3C)ncnc21 | inactive | inactive | inactive | inactive | inactive | inactive | inactive | inactive | inactive | inactive
inactive | Active | Active |  |  |  |  |  |  | Active | CCOC(=O)Cn1cnc2c(Nc3nnn[nH]3)ncnc21 | inactive | inactive | inactive | inactive | inactive | inactive | inactive | inactive | inactive | inactive
inactive | Active |  | inactive | inactive | Active | Active |  |  |  | CCCCCCn1cnc2c(Nc3nnn[nH]3)ncnc21 | inactive | inactive | inactive | inactive | inactive | inactive | inactive | inactive | inactive | inactive

Structure (SMILES) | Activity [3] | Activity [6] | Activity [7] | Activity [14] | Activity [15] | Activity [16] | Activity [17] | Activity [18] | Activity [19] | Activity [20] | Activity [1] | Activity [2] | Activity [4] | Activity [5] | Activity [8] | Activity [9] | Activity [10] | Activity [11] | Activity [12] | Activity [13]
c1nc(Nc2nnn[nH]2)c2nc[nH]c2n1 | inactive | Active |  | inactive | inactive | Active | Active |  |  |  | inactive | inactive | inactive | inactive | inactive | inactive | inactive | inactive | inactive | inactive
Cn1cnc2c(Nc3nnn[nH]3)ncnc21 | inactive | Active |  | inactive | inactive | Active | Active |  |  |  | inactive | inactive | inactive | inactive | inactive | inactive | inactive | inactive | inactive | inactive
